The values below come from PMC4153677, “Probing the Activity Modification Space of the Cysteine Peptidase Cathepsin K with Novel Allosteric Modifiers” (PLoS ONE, 2014).

In data set [1] the target is T1, Recombinant human cathepsin K (Homo sapiens, UniProt P43235).
T1 construct: made in house
T1 sequence (P43235 115-329): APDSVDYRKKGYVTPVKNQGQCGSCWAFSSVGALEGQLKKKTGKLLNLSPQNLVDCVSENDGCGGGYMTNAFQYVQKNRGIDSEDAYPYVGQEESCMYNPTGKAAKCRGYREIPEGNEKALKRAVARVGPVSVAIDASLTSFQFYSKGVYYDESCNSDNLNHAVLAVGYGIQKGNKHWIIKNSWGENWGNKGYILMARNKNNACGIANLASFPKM
Briefly: Azocasein degradation assays. Format: biochemical. As to conditions: pH 5.5; substrate azocasein 3 mg/ml; 0.1 µM cathepsin K, 30 min 37°C, pH 5.50; compounds up to 2 mM (compound 2: 1 mM); read-out: Residual activity. The text has this:
Figure 4 Effect of modifiers on the degradation of macromolecular substrates. (A) Effect of increasing concentrations of compounds 1 and 2 on the degradation of calf skin collagen. Molecular mass standards are given in kDa and positions of α, β and γ chains of intact collagen are marked by arrows. (B) Effect of modifiers on azocasein degradation. (C) Effect of glycosaminoglycans and clusterin on azocasein degradation. Two different concentrations of each glycosaminoglycan were used in the experiments (10 µg/ml and 200 µg/ml). Error bars in panels B and C represent the SEM of three experiments. All experiments were performed in 100 mM sodium acetate buffer pH 5.50 containing 1 mM EDTA and 5 mM DTT, as described in detail in the Materials and Methods section. Abbreviations: CPD – compound, CS – chondroitin sulfate, DS – dermatan sulfate, HP – heparin.
Azocasein (Sigma-Aldrich, USA) was dissolved in 100 mM sodium acetate buffer pH 5.50 containing 1 mM EDTA and 5 mM DTT at a concentration of 3 mg/ml. Samples were incubated with 0.1 µM cathepsin K for 30 min at 37°C in the presence of each compound. […] Reactions were stopped by addition of trichloroacetic acid (final concentration 5% v/v), centrifuged, clear supernatants mixed with 0.5 M NaOH and the concentrations of solubilized peptides determined by measuring the absorbance at 440 nm. All experiments were performed in triplicates and appropriate blanks were run to take into account the absorption of azocasein and compounds alone. IC 50 values were determined as described previously.

Data set [2] concerns the target T1, Recombinant human cathepsin K. Briefly: Collagenolytic assays (calf skin collagen, SDS-PAGE). The data set is classed as biochemical. On the set-up: key to collagen: qualitative value: qualitative values of 1 and 0 were used to signify inhibition and lack thereof, respectively; qualitative values of 1 and 0 were used to signify inhibition and lack thereof, respectively; a value of -1 was used to describe the concentration-dependent roles of glycosaminoglycans. On the procedure: The use of synthetic substrates is practical for the determination of the mechanisms of modification. […] Therefore, all modifiers were also tested with two macromolecular substrates, calf skin collagen and azocasein. The collagenolytic activity was tested quantitatively by following the fragmentation of the characteristic type I collagen pattern into smaller products on SDS-PAGE after incubation of the samples with cathepsin K in the presence and absence of modifiers.
Soluble calf skin collagen (Worthington Biochemical Corporation, USA) was diluted in 100 mM sodium acetate buffer pH 5.50 containing 1 mM EDTA and 5 mM DTT to a final concentration of 0.5 mg/ml. Experiments were started by addition of cathepsin K (final enzyme concentration 0.6 µM) to the reaction mixture containing collagen and increasing concentrations of modifier. All assays were performed at 28°C with shaking on an Eppendorf Thermomixer Comfort. Samples were incubated for 2 hours and the reactions then blocked by addition of E-64 to a final concentration of 1 µM. 10 µg of digested collagen were analyzed by SDS-PAGE on 8% polyacrylamide gels and protein bands visualized by Coomassie Brilliant Blue R-250 staining.

Data set [3] shares this target. The data set is described as follows: Thermal stability of cathepsin K at pH 7.4 in the presence of modifiers. Format: biochemical. On the procedure: Cathepsin K was incubated at 37°C in 50 mM Hepes buffer pH 7.40 containing 1 mM EDTA and 5 mM DTT in the presence or absence of each modifier. The final enzyme concentration was 0.2 µM and final compounds concentrations were 2 mM, except compound 2, which was used at a concentration of 1 mM. All experiments were performed in Eppendorf Protein LoBind Tubes to minimize the adsorption of proteins on tube walls. Aliquots were withdrawn from the reaction mixtures at regular time intervals and their residual activity measured using the substrate Z-FR↓AMC (5 µM final concentration). Inactivation curves had exponential profiles that were fitted with the mathematical model for one-phase exponential decay to determine the half-life of the enzyme in each reaction mixture.

Data set [4] in a line: Solubility in aqueous buffers. Format: physicochemical. As to conditions: aqueous buffer, kinetic from dmso stock. How it is done: Recombinant human cathepsin K was prepared as described previously. Chemical probes were obtained from the U.S. NCI/DTP Open Chemical Repository or from ChemBridge (USA). All compounds were soluble in aqueous buffers at concentrations of at least 2 mM, except for compound 2, which was soluble up to a maximal concentration of 1 mM. Stock solutions of all compounds were prepared in DMSO. The fluorogenic substrate Z-FR↓AMC (benzyloxycarbonyl-Phe-Arg-7-amino-4-methylcoumarin) was from Bachem (Switzerland).

Structures are written as SMILES. Read-outs that look alike come from different tables or passages of the source.

In the case of `OC(c1cc(-c2ccc(C(F)(F)F)cc2)nc(C(F)(F)F)c1)C1CCCCN1` (centres unmarked) [Compound 2, Piperidin-2-yl-[2-(trifluoromethyl)-6-[4-(trifluoromethyl)phenyl]pyridin-4-yl] methanol], in data set [1], the remaining activity stood at 93 ± 7%. Further, the “Effect on degradation of calf skin collagen” value in data set [2] (SDS-PAGE, increasing concentrations of modifier) was “concentration-dependent inhibitory effect”. For the same compound, the “collagen: qualitative value” in data set [2] (activity modification matrix) is on record as 1. Further, the IC50 in data set [2] (degradation of calf skin collagen, read-out: IC 50 (estimated)) was roughly 500 µM; in data set [2] (substrate calf skin collagen 0.5 mg/ml, 0.6 µM cathepsin K, 2 hours 28°C, pH 5.50, estimated, read-out: IC 50), 500 µM. The “stability: ln(sf), sf = ratio of half-lives in the presence and absence of modifier” value in data set [3] (37 °C and pH 7.4) was 0.79. Besides, the “Increase of stability (half-life) of cathepsin K” value in data set [3] (pH 7.4, 37°C, versus enzyme only) is recorded as “about 2 fold”. For the same compound, the solubility (as a rule, the dissolved amount per volume that the medium holds) in data set [4] was no more than 1000 µM.
